Data: patent publication US9345755B2, “Composition and methods for treating melanoma” (University of Virginia Patent Foundation, priority 2012, dated 2016)
“Also recorded” adds a separate entry of the source. Ends that are not written are not given here.

What was measured:
[1] = physchem
Description: Vaccines are prepared by solubilization of each peptide in aqueous solutions, then sterile filtration, mixing, and vialing at 600 mcg per vial.
It is then sterile-filtered. […] It is then sterile-filtered.
The solubilization regimen was difficult to establish for the 8 long peptides.
These 3 sterile solutions will be combined and will be brought up to a concentration of 600 mcg/ml of each peptide using sterile water, lactated ringer's solution or normal saline solution. The pH of the mixture will be about 8-8.50, for a concentration of 600 micrograms per ml of each peptide.

[2] = test system: high-risk ovarian cancer patients; conditions: human, in vivo; cited from earlier work
[3] = Stability of peptide against alkaline hydrolysis at pH 12; format: physicochemical; conditions: pH 12, NaOH
Description: It will be sterile-filtered.

solubility [1] | Substance | other results
10 mg/mL | LLHLAVIGALLAVGATKVPRNQDWLGVSRQL [Peptide 6] | –
– | NY-ESO-179-108: long peptide, residues 79-108 of cancer-testis antigen NY-ESO-1 (GARGPESRLLEFYLAMPFATPMEAELARRS; UniProt P78358 79-108, looked up, fragment) | CD4 T cell responses after vaccination [2]: induces CD4 T cell responses
– | SMHNALHIYMDGTMSQVQGSANDPIFLLHH [Peptide 3] | stability (hydrolysis/degradation) of peptide [3]: stable at this pH and is not hydrolyzed or degraded; also recorded: hydrolysis is not an issue and the peptide is intact
20 mg/mL | VPLAHSSSAFTIMDQVPFSVSVSQLRALDG [Peptide 4] | –
